Patent US6703483B1, “Compounds useful in pain management” (Cornell Research Foundation, Inc., priority 1999, dated 2004)

Experiments:
[1] = Respiratory depression studies (whole body plethysmography) after i.th. administration; conditions: rat; for decrease of minute ventilation: during 3 to 6 hours after administration
Description: Whole body plethysmography was performed as described in the literature (K. Tatsumi et al., J. Appl. Physiol. 71, 37-42 (1991)). An unrestrained rat was placed in a 3-liter whole-body plethysmograph chamber and breathed 100% humidified air supplied into and out of the chamber at a rate of 1000 ml/min. After a 15-min acclimation period the inlet and outlet of the chamber were closed and the pressure changes in the box, caused by the warming and wetting of the gas inspired by the rat and the cooling and drying of the expired gas, were recorded using a high-gain differential pressure transducer. A calibration volume of 0.2 ml of air was regularly introduced into the chamber during the recordings. The recordings were made for 20-30 seconds. Subsequently, the inlet and outlet were opened, and the gas supply was changed to a mixture of 5% CO2 and 21% O2 in N2 (100% humidified) and the rat was allowed to breathe the gas mixture for 5 min to reach a steady-state ventilatory condition. The recordings of changes in pressure were repeated with the chamber closed. Tidal volumes were calculated from the pressure changes using the equation derived by J. E. Drorbaugh and W. O. Fenn, Pediatrics 16, 81-87 (1955). Respiratory frequencies were also determined from the number of respiratory cycles in the recordings and minute ventilations were calculated (tidal volume x frequency).
Compounds were administered at a low dose (3×ED50 determined in the analgesic test) and at a high dose (30×ED50).

[2] = In vivo disposition in pregnant sheep (fetal plasma, placental transfer); conditions: i.v. infusion to pregnant sheep
Description: The in vivo disposition after i.v. administration to pregnant sheep was examined by using procedures described in the literature (H. H. Szeto et al. J. Pharmacol. Exp. Ther. 284. 61-65 (1998)). Chronic indwelling catheters were surgically placed in four pregnant ewes (gestional age, 115-120 days; term ˜145 days) as described by H. H. Szeto et al., Am. J. Physiol. 258, R1453-R1458 (1990). […] The compounds according to the invention were administered as a constant-rate intravenous infusion (0.6 mg/kg/h and 0.06 mg/kg/h, respectively, for 4 h) to the sheep, and blood samples were collected at 0, 1, 2, 3, 3.5, 4, 4.25, 4.5, 5, 6, 7, 12 and 24 h. Blood samples were collected form the fetus at 0, 3, 3.5, 4, 5 and 6 h. All blood samples were collected into chilled borosilicate glass tubes containing EDTA and centrifuged, and the plasma was stored in glass containers with Teflon-lined caps and frozen at −80° C.
The compounds were quantified by using reversed-phase HPLC and MS detection, as described by Grigoriants et al., J. Chromatogr. B, Biomedical Applications 695, 287-298 (1997). […] The filtered plasma sample was chromatographed on an RP-analytical column (Delta Pak, 5 μm, C18, 100 Å, 150×3.9 mm; Waters, Milford, Mass.) at a flow rate of 1.5 ml/min, and UV absorption was monitored at 200 nm. […] Continuous flow-LSIMS was used to quantify DALDA. […]

[3] = Hemodynamic and metabolic effects in the pregnant sheep model; assay type: in vivo; conditions: i.v. infusion 0.6 mg/kg/h and 0.06 mg/kg/h, respectively
Description: Using the same instrumented pregnant sheep model described above, DALDA and its analogs were administered by i.v. infusion at a dose of 0.6 mg/kg/h and 0.06 mg/kg/h, respectively. No effect on maternal blood pressure, heart rate, blood gases and plasma glucose were observed. Similarly, neither peptide had any effect on fetal blood pressure, heart rate, blood gases and plasma glucose.

[4] = 2 h after i.th. administration, dose 7.5 μg (32×ED50); cited from earlier work
μ receptor = molecular target: T1, μ receptor (Rattus norvegicus, UniProt P33535); conditions: rat brain membranes; cited from earlier work
T1 construct: from tissue; host or cells: rat brain (cerebellum removed) membranes
T1 sequence (P33535 whole entry): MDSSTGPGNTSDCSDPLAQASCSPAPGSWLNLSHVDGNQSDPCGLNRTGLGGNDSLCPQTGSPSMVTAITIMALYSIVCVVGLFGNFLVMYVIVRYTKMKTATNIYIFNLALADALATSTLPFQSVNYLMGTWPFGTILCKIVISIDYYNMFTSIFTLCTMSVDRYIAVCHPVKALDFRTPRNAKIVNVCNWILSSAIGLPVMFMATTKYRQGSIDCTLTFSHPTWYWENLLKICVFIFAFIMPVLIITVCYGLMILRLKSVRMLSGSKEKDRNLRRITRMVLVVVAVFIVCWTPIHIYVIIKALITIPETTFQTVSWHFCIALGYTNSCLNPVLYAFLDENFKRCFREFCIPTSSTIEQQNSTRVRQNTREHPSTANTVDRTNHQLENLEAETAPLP

μ receptors = conditions: GPI; cited from earlier work

SMILES	decrease of minute ventilation ([1]; high dose (30×ED50)) [%]	decrease of minute ventilation ([1]; low dose (3×ED50)) [%]	crossing of the placental barrier [2]	effect on maternal blood pressure, heart rate, blood gases and plasma glucose [3]	delayed respiratory depression [4]	μ receptor affinity (μ receptor)	μ receptor selectivity (μ receptor)	μ agonist potency (μ receptors)	decrease of minute ventilation compared to saline control ([1]; low dose (3×ED50) and high dose (30×ED50))
NCCCC[C@H](NC(=O)[C@H](Cc1ccccc1)NC(=O)[C@@H](CCCN=C(N)N)NC(=O)[C@@H](N)Cc1ccc(O)cc1)C(N)=O [DALDA, H-Tyr-D-Arg-Phe-Lys-NH2]	30	26	do not cross the placental barrier to a significant extent	No effect	did produce delayed respiratory depression	high μ receptor affinity	excellent μ receptor selectivity	considerable μ agonist potency	
Cc1cc(O)cc(C)c1C[C@H](N)C(=O)N[C@H](CCCNC(=N)N)C(=O)N[C@@H](Cc1ccccc1)C(=O)N[C@@H](CCCCN)C(N)=O [Example 1, H-Dmt-D-Arg-Phe-Lys-NH2]									Neither dose of H-Dmt-D-Arg-Phe-Lys-NH2 significantly decreased minute ventilation
CN1CC[C@]23c4c5ccc(O)c4O[C@H]2[C@@H](O)C=C[C@H]3[C@H]1C5 [morphine]	26								
